Laboratory results taken from ChEMBL document CHEMBL4823265, “Benzophenones from Betula alnoides with Antiausterity Activities against the PANC-1 Human Pancreatic Cancer Cell Line” (J Nat Prod, 2021).
Active and inactive are the calls of the source. The rule behind the calls is not given here.

Assays:
PANC-1 [1] = experiment: Anti-austerity activity against human PANC-1 cells assessed as cell killing incubated for 24 hrs in nutrient deprived medium by CCK8 assay; format: functional
PANC-1 [2] = experiment: Cytotoxicity against human PANC-1 cells assessed as reduction in cell viability incubated for 24 hrs in nutrient-rich DMEM medium by CCK8 assay; format: cell-based; conditions: panc-1, 24 h
PANC-1 [3] = experiment: Cytotoxicity against human PANC-1 cells assessed as swollen cell morphology by measuring red fluorescence emission incubated for 24 hrs in nutrient deprived medium by ethidium bromide/acridine orange double staining based fluorescence microscopic analysis; format: functional; conditions: dose 5-10 µM
PANC-1 [4] = experiment: Cytotoxicity against human PANC-1 cells assessed as ruptured cell membrane by measuring red fluorescence emission incubated for 24 hrs in nutrient deprived medium by ethidium bromide/acridine orange double staining based fluorescence microscopic analysis; format: functional; conditions: dose 5-10 µM
PANC-1 [5] = experiment: Inhibition of colony formation in human PANC-1 cells treated for 24 hrs followed by replacement with fresh DMEM medium and measured after 10 days by crystal violet staining based assay; format: functional, cell-based; conditions: dose 10-40 µM
PANC-1 [6] = experiment: Cytotoxicity against human PANC-1 cells assessed as inhibition of cell mobility at 5 to 10 uM incubated in nutrient deprived medium measured every 15 mins for 4 hrs by time-lapse live imaging based analysis; format: functional; conditions: dose 5-10 µM
PANC-1 [7] = experiment: Cytotoxicity against human PANC-1 cells assessed as cell death at 10 uM incubated in nutrient deprived medium measured every 15 mins for 23 hrs by time-lapse live imaging based analysis; format: functional
PANC-1 [8] = experiment: Inhibition of colony formation in human PANC-1 cells at 40 uM treated for 24 hrs followed by replacement with fresh DMEM medium and measured after 10 days by crystal violet staining based assay relative to control; format: functional
PANC-1 [9] = experiment: Cytotoxicity against human PANC-1 cells assessed as membrane blebs by measuring red fluorescence emission incubated for 24 hrs in nutrient deprived medium by ethidium bromide/acridine orange double staining based fluorescence microscopic analysis; format: functional, cell-based; conditions: dose 5-10 µM
PANC-1 [10] = experiment: Cytotoxicity against human PANC-1 cells assessed as cell shrinkage at 5 to 10 uM incubated in nutrient deprived medium measured every 15 mins for 8 hrs by time-lapse live imaging based analysis; format: functional; conditions: dose 5-10 µM
PANC-1 [11] = experiment: Cytotoxicity against human PANC-1 cells assessed as membrane blebbing at 10 uM incubated in nutrient deprived medium measured every 15 mins for 13 hrs by time-lapse live imaging based analysis; format: functional, cell-based
PANC-1 [12] = experiment: Inhibition of colony formation in human PANC-1 cells at 20 uM treated for 24 hrs followed by replacement with fresh DMEM medium and measured after 10 days by crystal violet staining based assay relative to control; format: functional
PANC-1 [13] = experiment: Inhibition of colony formation in human PANC-1 cells at 10 to 40 uM treated for 24 hrs followed by replacement with fresh DMEM medium and measured after 10 days by crystal violet staining based assay relative to control; format: functional; conditions: dose 10-40 µM

Structure (SMILES) | PC50 (PANC-1 [1]) [µM] | Activity (PANC-1 [2]) | other results
COc1cccc2c(=O)c3c(O)cccc3oc12 | 61 | Non-Toxic | –
O=c1c2ccc(O)cc2oc2ccc(O)cc12 | 45.2 | Non-Toxic | –
O=C(c1ccccc1O)c1cc(O)ccc1O | 42.5 | Non-Toxic | –
CC(C)(O)[C@@H]1CC[C@@]2(C)C[C@@H]1c1c(O)cc(O)c(C(=O)c3ccccc3)c1O2 | 4.9 | Non-Toxic | Activity (PANC-1 [3]): Dose-Dependent Effect; Activity (PANC-1 [4]): Dose-Dependent Effect; inhibition (PANC-1 [5]): Dose-Dependent Effect; Activity (PANC-1 [6]): Active; Activity (PANC-1 [7]): Active; inhibition at 40 µM (PANC-1 [8]): 64%; Activity (PANC-1 [9]): Dose-Dependent Effect; Activity (PANC-1 [10]): Active; Activity (PANC-1 [11]): Active; inhibition at 20 µM (PANC-1 [12]): 45%
CC(C)=CCC/C(C)=C/CC[C@@](C)(O)CCc1c(O)cc(O)c(C(=O)c2ccccc2)c1O | 5.9 | Non-Toxic | Activity (PANC-1 [3]): Dose-Dependent Effect; Activity (PANC-1 [4]): Dose-Dependent Effect; inhibition (PANC-1 [5]): Dose-Dependent Effect; inhibition (INH) (PANC-1 [13]): >60%; Activity (PANC-1 [9]): Dose-Dependent Effect
CC(C)=CCC/C(C)=C/CC[C@]1(C)CCc2c(O)cc(O)c(C(=O)c3ccccc3)c2O1 | 12.3 | Non-Toxic | –
COc1cc(C[C@H]2C(=O)OC[C@@H]2Cc2ccc(OC)c(OC)c2)ccc1O [ARCTIGENIN] | 0.7 | – | –
CC(C)=CCC/C(C)=C/CC[C@@]1(C)Oc2c(c(O)cc(O)c2C(=O)c2ccccc2)C[C@H]1O | 6.7 | Non-Toxic | –
COc1cc2c(=O)c3ccccc3oc2cc1O | >100 | Non-Toxic | –
CC(C)=CCC/C(C)=C/CC/C(C)=C/Cc1c(O)cc(O)c(C(=O)c2ccccc2)c1O | 8.3 | Non-Toxic | –
